Source: paper PMC10607377, “The PKG Inhibitor CN238 Affords Functional Protection of Photoreceptors and Ganglion Cells against Retinal Degeneration” (International Journal of Molecular Sciences, 2023)
pEC50: −log10 of the molar value.

Columns and labels:
cone CNG channel (CNGA3) = molecular target: T1, cone CNG channel (CNGA3) (Homo sapiens, UniProt Q16281+Q9NQW8); experiment: inside-out patch-clamp, concentration-activation; type: cell-based
T1 construct: CNGA3:CNGB3 expressed in Xenopus oocytes; with CNGB3
T1 sequence (Q16281 1-694): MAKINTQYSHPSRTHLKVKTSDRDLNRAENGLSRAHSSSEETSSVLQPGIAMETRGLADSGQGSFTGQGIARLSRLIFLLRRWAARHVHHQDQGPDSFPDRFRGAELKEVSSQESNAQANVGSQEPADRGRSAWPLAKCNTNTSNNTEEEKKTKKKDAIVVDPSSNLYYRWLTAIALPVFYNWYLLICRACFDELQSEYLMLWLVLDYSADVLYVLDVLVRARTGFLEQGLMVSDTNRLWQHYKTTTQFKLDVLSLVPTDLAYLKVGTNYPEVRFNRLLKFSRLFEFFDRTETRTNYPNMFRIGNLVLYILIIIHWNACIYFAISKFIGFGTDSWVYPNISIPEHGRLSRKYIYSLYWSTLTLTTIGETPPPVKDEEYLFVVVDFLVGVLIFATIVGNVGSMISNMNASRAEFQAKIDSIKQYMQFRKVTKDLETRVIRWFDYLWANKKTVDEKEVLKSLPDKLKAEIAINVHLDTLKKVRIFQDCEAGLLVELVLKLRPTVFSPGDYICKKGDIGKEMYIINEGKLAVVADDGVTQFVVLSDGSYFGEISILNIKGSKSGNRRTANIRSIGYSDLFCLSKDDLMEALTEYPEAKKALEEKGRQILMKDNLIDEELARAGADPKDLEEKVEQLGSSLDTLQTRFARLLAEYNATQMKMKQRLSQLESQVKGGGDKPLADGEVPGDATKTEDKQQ
T1 sequence (Q9NQW8 1-809): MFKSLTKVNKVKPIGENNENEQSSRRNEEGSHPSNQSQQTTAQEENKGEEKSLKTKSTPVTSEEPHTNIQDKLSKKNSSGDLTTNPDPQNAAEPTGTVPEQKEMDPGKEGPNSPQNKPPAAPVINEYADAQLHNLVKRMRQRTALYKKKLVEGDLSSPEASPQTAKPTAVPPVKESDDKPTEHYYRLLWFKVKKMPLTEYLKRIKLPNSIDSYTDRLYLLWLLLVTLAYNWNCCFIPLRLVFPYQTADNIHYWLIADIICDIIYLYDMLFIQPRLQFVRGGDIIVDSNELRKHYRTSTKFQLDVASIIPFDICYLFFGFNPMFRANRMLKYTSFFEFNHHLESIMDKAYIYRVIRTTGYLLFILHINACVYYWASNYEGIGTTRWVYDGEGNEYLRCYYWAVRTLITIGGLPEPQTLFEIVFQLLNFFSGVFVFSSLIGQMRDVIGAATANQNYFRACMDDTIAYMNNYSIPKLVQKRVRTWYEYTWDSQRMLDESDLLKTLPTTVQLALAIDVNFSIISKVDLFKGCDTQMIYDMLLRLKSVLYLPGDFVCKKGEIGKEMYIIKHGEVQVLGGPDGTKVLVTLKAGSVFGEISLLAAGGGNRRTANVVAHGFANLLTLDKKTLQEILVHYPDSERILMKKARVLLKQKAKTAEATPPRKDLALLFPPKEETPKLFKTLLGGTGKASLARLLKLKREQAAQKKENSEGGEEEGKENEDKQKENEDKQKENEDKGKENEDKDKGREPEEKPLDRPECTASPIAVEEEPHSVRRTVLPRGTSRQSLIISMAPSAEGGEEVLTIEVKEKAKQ

PKG2 = molecular target: T2, PKG2 (Homo sapiens, UniProt Q13237); experiment: coupled spectrophotometric kinase activation assay; type: biochemical
T2 construct: gene PRKG2; FLAG-Strep-Strep-tagged human PKG2 (1–762) WT
T2 sequence (Q13237 1-762): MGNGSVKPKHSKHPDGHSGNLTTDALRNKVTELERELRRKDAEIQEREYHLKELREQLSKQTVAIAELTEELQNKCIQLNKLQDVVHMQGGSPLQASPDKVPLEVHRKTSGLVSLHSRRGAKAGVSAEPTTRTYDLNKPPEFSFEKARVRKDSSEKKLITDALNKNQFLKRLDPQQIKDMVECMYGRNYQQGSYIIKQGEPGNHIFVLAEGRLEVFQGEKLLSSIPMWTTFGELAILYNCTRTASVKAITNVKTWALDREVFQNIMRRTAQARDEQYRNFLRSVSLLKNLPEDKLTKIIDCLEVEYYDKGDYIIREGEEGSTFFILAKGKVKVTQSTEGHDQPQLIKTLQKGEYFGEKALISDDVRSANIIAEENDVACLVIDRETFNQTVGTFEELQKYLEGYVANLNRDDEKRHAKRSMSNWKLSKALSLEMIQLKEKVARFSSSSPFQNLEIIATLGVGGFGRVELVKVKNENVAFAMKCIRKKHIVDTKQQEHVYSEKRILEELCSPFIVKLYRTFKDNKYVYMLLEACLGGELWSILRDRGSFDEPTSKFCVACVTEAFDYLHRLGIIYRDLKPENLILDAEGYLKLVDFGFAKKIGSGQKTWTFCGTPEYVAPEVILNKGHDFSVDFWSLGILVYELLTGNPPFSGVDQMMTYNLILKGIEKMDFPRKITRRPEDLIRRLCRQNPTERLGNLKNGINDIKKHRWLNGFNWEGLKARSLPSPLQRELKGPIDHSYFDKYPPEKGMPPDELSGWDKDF

PKG1β = molecular target: T3, PKG1β (Homo sapiens, UniProt Q13976)
T3 construct: gene PRKG1
T3 sequence (Q13976 4-686 isoform Q13976-2): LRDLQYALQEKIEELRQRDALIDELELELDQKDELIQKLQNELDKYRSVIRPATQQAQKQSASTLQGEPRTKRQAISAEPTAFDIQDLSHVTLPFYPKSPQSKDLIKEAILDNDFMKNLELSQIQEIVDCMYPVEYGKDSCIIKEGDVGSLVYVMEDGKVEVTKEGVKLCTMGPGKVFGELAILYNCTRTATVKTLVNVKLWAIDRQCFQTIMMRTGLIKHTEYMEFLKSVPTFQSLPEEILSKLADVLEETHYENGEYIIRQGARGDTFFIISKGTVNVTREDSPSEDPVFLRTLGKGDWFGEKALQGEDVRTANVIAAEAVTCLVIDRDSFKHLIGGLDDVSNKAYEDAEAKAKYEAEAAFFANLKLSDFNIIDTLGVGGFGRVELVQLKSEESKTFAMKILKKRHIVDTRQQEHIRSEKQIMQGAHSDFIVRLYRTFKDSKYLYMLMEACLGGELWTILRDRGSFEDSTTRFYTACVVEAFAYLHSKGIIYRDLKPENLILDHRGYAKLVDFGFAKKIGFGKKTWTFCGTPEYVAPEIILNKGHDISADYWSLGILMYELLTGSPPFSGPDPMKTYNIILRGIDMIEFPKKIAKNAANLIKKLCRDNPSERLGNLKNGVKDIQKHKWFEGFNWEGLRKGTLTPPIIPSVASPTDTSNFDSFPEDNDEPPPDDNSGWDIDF

pEC50 (cone CNG channel (CNGA3)): 4.97
Structure (SMILES): Nc1nc2c(ncn2[C@@H]2O[C@@H]3COP(=O)(O)O[C@H]3[C@H]2O)c(=O)[nH]1 [cGMP]
coupled spectrophotometric kinase activation assay (PKG2): Activation with cGMP was determined for all PKG isoforms | coupled spectrophotometric kinase activation assay (PKG1β): Activation with cGMP was determined for all PKG isoforms
